Measurements taken from patent US6627580B2, “Chelating agents and their manganic chelates” (Akzo Nobel N.V., priority 1997, dated 2003).
Each block holds one compound with its values, some of them ahead of it.

Legend:
[1] = Preference of the new chelant for manganic ions over ferric ions (citrate solutions, pH 7.8); type: physicochemical; settings: for colour developed: pH 7.8
Description: In order to show the preference of the new chelants for manganic ions over ferric ions, stable, slightly alkaline solutions of these ions were prepared by chelation with two moies of citric acid. Both solutions were adjusted with sodium hydroxide to a pH of 7.8 at a concentration of 0.001 mmole/ml of manganese and iron, respectively. Three experiments were made for comparison:
a) of each solution 10 ml (0.01 mmole) was mixed, and 0.25 g of the 0.04 molar chelate (or ligand) solution from. Example 1 […] was added.
b) 10 ml of manganic citrate solution was mixed with 0.25 g of the chelate solution.
c) 10 ml of the ferric citrate solution was mixed with 0.25 g of the chelate solution.

[2] = Comparative test with a reduced chelant (manganic chelate of borohydride-reduced chelant); type: physicochemical
Description: A solution of the chelant according to Example 1 was adjusted to a concentration of 10 mmoles/L and a pH of 5. Sodium borohydride was added at 5 minute intervals until the yellow salicylimine colour disappeared. The pH was then adjusted to 8, and the manganic chelate was generated as described in Example 2 for a final pH of 8.

[3] = Hydrolytic stability of the new manganic chelate (step-wise alkalisation with dilute sodium hydroxide); type: physicochemical
Excerpt: The manganic chelate solution from Example 2 was alkalised step-wise with dilute sodium hydroxide. Samples were taken at various pH and set aside for later inspection.

[4] = Soil tests with the new manganic chelate and other manganese sources; type: physicochemical
Description: A soil sample was taken from a sugar-beet field in Helsingborg, Sweden. It was sifted and homogenised and analysed by a certified agricultural laboratory by so-called ICP after extraction with dilute acetic of EDTA.
35 g portions of the slightly moist soil were transferred to 250 ml glass bottles together with 120 ml of dilute solutions containing about 30 ppm manganese. The solutions to be tested were made from:
The bottles were rotated in a tumbling device at about 1 revolution per second for a period of 19 days. […] The clear liquid samples were analysed by ICP.

[5] = Shaking test with calcium carbonate; type: physicochemical
Excerpt: The test in Example 6 was repeated with the new manganic chelate but with analytical grade calcium carbonate instead of soil. The pH of the suspension was 8.5.

[6] = Formation and hydrolytic stability of a ferric chelate; type: physicochemical; settings: for Appearance of ferric chelate solution: colour observed during the next 1-2 hours
Description: 2 ml of the chelate solution from Example 1 (0.08 mmole) was diluted with 15 ml water and 1 ml of 0.05 molar ferric chloride solution was added dropwise. The pH was brought to 7 with dilute sodium hydroxide, giving a dark wine red solution. The solution was then gradually alkalised by the addition of dilute sodium hydroxide, and the colour was observed during the next 1-2 hours.

[7] = Ahrland et al. 1990, cited from earlier work
[8] = pH stability of manganic and ferric chelates of the tropolone chelant; type: physicochemical
Description: The manganic chelate of the new chelant was prepared in analogy with Example 2 and formed a brown solution stable at pH 10.
With ferric iron ions the chelant formed a red solution at pH 5. On raising the pH the red colour started to fade at pH 7-8.

[9] = Tropolone chelant with molar equivalents of manganic and ferric ions; type: physicochemical; settings: pH 9
[10] = b) manganic citrate solution only
[11] = c) ferric citrate solution only

stability of the yellow colour ([1]; a) manganic citrate + ferric citrate solutions): stable for weeks | colour developed ([1]; a) manganic citrate + ferric citrate solutions (0.01 mmole each)): yellow ochre colour | stability of the yellow colour [1, 10]: stable for weeks | colour developed [1, 10]: yellow ochre colour | time until solution turned completely red [1, 11]: about one hour | colour developed [1, 11]: red colour | selectivity between ferric and manganic ions ([1]; near neutral pH, yellow colour stable for at least several weeks): remarkable preference for manganic ion
SMILES: O=C(O)CC(N=Cc1ccccc1O)C(CC(=O)O)N=Cc1ccccc1O (stereo not drawn) [Example 1]

stability to hydrolysis of manganic chelate of reduced chelant [2]: very unstable to hydrolysis | result on generating the manganic chelate ([2]; final pH of 8): immediate dark precipitate | manganese dioxide precipitation ([2]; neutral pH): started to precipitate immediately
SMILES: O=C([O-])CC(NCc1ccccc1[O-])C(CC(=O)[O-])NCc1ccccc1[O-].[Mn+3] (stereo not drawn) [Example 4]

pH up to which the manganic chelate forms stable solutions / is stable to hydrolysis ([3]; manganic chelate): at least 10.5 | appearance of manganic chelate solution ([3]; pH 8, after 1 h): clear, | appearance of manganic chelate solution ([3]; pH 8, after 24 hours): clear, same colour | appearance of manganic chelate solution ([3]; pH 8, after 5 days): clear, | appearance of manganic chelate solution ([3]; pH 8, immediately): clear ochre | appearance of manganic chelate solution ([3]; pH 9, after 1 h): clear, | appearance of manganic chelate solution ([3]; pH 9, after 24 hours): clear, same colour | appearance of manganic chelate solution ([3]; pH 9, after 5 days): clear, | appearance of manganic chelate solution ([3]; pH 9, immediately): clear, same colour | appearance of manganic chelate solution ([3]; pH 10.5, after 1 h): clear, | appearance of manganic chelate solution ([3]; pH 10.5, after 24 hours): clear, same colour | appearance of manganic chelate solution ([3]; pH 10.5, after 5 days): clear, | appearance of manganic chelate solution ([3]; pH 10.5, immediately): clear, same colour | appearance of manganic chelate solution ([3]; pH 11, after 1 h): clear, | appearance of manganic chelate solution ([3]; pH 11, after 24 hours): slight precipitate | appearance of manganic chelate solution ([3]; pH 11, after 5 days): slight | appearance of manganic chelate solution ([3]; pH 11, immediately): clear, same colour | appearance of manganic chelate solution ([3]; pH 11.3, after 1 h): precipitation | appearance of manganic chelate solution ([3]; pH 11.3, after 24 hours): considerable dark | appearance of manganic chelate solution ([3]; pH 11.3, after 5 days): as before | appearance of manganic chelate solution ([3]; pH 11.3, immediately): clear, same colour | soluble manganese retained, of its original content ([4]; after 19 days with soil of low manganese, high iron content): about 50% | time to visible colour change of centrifuged sample to orange yellow ([4]; soil test): after a week | manganese content in the liquid phase ([5]; calcium carbonate suspension, pH 8.5, remained constant for several weeks): 30 ppm | colour of liquid phase ([5]; calcium carbonate suspension, pH 8.5, several weeks): remained the same yellow ochre | solubility in shaking test with calcium carbonate ([5]; for at least several weeks): completely soluble | hydrolytic stability ([5]; pH 8.5 in the presence of calcium): excellent hydrolytic stability
SMILES: O=C([O-])CC(N=Cc1ccccc1[O-])C(CC(=O)[O-])N=Cc1ccccc1[O-].[Mn+3] (stereo not drawn) [Example 2]

pH at which the ferric chelate starts to hydrolyse [6]: 9 | Appearance of ferric chelate solution ([6]; pH 7): Wine red | Appearance of ferric chelate solution ([6]; pH 8): Wine red | Appearance of ferric chelate solution ([6]; pH 9): Slightly lighter wine red | Appearance of ferric chelate solution ([6]; pH 10): Lighter wine red | Appearance of ferric chelate solution ([6]; pH 11): Much lighter wine red
SMILES: O=C([O-])CC(N=Cc1ccccc1[O-])C(CC(=O)[O-])N=Cc1ccccc1[O-].[Fe+3] (stereo not drawn) [Example 5]

SMILES: O=C(O)C(NCCNC(C(=O)O)c1ccccc1O)c1ccccc1O.[Mn+3] (stereo not drawn) [manganic EDDHA, reference compound]
pKa for hydrolysis of manganic chelate ([7]; manganic chelate): 9.3 | time to colour change of centrifuged sample from brownish to red (manganese replaced by ferric iron) ([4]; soil test): ≤ 1 days

pH at which the red colour started to fade ([8]; ferric chelate, on raising the pH): 7-8 | appearance with ferric iron ions ([8]; ferric chelate, pH 5): red solution | stability of manganic chelate solution (brown) ([8]; manganic chelate, pH 10): stable | colour with molar equivalents of both manganic and ferric ions (indicating preference for manganic ions) [9]: stable brown colour
SMILES: O=C(O)CC(N=c1cccccc1O)C(CC(=O)O)N=c1cccccc1O (stereo not drawn) [Example 9]
appearance with ferric iron ions ([8]; ferric chelate, pH 10): turned yellow, with precipitation of the ferric hydroxide

SMILES: O=C(O)C(NCCNC(C(=O)O)c1ccccc1O)c1ccccc1O (stereo not drawn) [EDDHA, ethylenediamine-di-2-hydroxyphenylacetic acid]
pKa for hydrolysis of ferric chelate ([7]; ferric chelate): 12.7
